The record followed here is patent US9586959B2, “Substituted tricyclic heterocycles as histamine 4 receptor inhibitors” (C&C RESEARCH LABORATORIES, priority 2011, dated 2017).

Data set [1] can be described thus: Metabolic stability in mouse microsome. The following applies: mouse microsome 1 mg/mL, 5 μM compound, 1 mM NADPH.
Data set [2] in a line: Metabolic stability in human microsome. The conditions noted are these: human microsome 1 mg/mL, 5 μM compound, 1 mM NADPH.
Data set [3] concerns the target human histamine 3 receptor (hH3R) (Homo sapiens (Human), UniProt Q9Y5N1). The data set is described as follows: Binding affinity of human histamine 3 receptor (hH3R), [3H] labeled N-α-methylhistamine displacement. The conditions noted are these: hH3R-overexpressed cell membrane, [3H] N-α-methylhistamine. The method in brief: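 Membranes from cells overexpressing hH3R (15 μg) were incubated with compound and [3H]N-α-methylhistamine (20 μM stock) in 50 mM Tris-HCl pH 7.4, 5 mM MgCl2 for 30 min at 27 °C. Bound radioligand was counted by scintillation after filtration; 200 μM (R)(−)-α-methylhistamine stock defined non-specific binding; IC50 derived.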

The target in data set [4] is human histamine 4 receptor (hH4R) (Homo sapiens (Human), UniProt Q9H3N8). The data set is described as follows: Binding affinity of human histamine 4 receptor (hH4R), [3H] labeled histamine displacement. The following applies: hH4R-overexpressed cell membrane, [3H] histamine. As for the experimental part: 20 μL of the prepared compound solution was transferred to each well of a 96-well plate, and then 20 μL of 100 μM histamine diluted with analysis buffer solution and 1% DMSO were transferred to each well to calculate non-specific binding and total binding degree. 25 μg of human histamine 4 receptor-overexpressed cell membrane (PerkinElmer) was diluted into 160 μL of analysis buffer solution and that was transferred to each well. [^3H] labeled histamine (PerkinElmer) was diluted into 1 μM concentration, 20 μL was allocated in each well, and then it was kept in a 27° C. incubator for 30 minutes. After the reaction, 200 μL of the mixture was transferred to a glass fiber plate in which 0.5% polyethylene amine was presoaked, and then non-binding [^3H] labeled histamine was removed in vacuum. After 4 times washing with 200 μL of washing buffer solution (50 mM tris-HCl, pH 7.4), the plate was dried in a 37° C. oven for 18 hours. 100 μL of betascint cocktail solution was added to each well, and after 1 hour CPM (count per minute) value of [^3H] labeled histamine was measured by using Wallac beta-counter TriLux.
Sequence of human histamine 4 receptor (hH4R) (Q9H3N8 whole entry): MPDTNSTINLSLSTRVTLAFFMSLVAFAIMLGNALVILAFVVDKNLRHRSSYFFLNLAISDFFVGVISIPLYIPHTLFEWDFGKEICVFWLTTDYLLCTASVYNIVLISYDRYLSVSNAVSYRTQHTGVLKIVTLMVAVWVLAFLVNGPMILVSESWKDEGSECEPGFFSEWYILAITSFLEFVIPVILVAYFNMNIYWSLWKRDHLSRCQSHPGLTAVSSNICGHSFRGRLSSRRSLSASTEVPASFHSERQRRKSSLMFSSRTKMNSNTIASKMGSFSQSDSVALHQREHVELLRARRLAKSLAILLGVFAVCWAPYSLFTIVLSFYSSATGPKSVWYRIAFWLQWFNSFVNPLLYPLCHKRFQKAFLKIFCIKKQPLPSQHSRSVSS

Sequence of human histamine 3 receptor (hH3R) (Q9Y5N1 whole entry): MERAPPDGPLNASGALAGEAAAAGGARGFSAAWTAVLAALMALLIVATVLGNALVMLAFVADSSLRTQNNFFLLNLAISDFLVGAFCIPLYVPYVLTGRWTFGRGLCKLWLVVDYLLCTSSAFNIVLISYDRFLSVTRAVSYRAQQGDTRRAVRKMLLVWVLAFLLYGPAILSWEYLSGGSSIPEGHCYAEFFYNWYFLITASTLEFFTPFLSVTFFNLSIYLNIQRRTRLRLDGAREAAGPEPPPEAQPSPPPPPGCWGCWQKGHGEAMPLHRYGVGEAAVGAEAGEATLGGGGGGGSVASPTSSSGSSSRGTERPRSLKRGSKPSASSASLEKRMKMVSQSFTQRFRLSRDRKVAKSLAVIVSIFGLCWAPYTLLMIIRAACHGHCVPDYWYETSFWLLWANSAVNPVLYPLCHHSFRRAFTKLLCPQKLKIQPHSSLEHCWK

With `CN(O)C1CN(c2nc3ncc(Br)cc3n3cnnc23)C1` [Compound 102, N-(1-(8-bromopyrido[2,3-e][1,2,4]triazolo[4,3-a]pyrazin-4-yl)azetidin-3-yl)-N-methylhydroxylamine], the “Metabolic stability (CLh. int), Mouse” value in data set [1] was 6780 µL/min/mg. Further, the “Metabolic stability (CLh. int), Human” value in data set [2] worked out at 1990 µL/min/mg. In data set [3], this molecule came in with an IC50 of more than 100 µM.
For the molecule `CN1CCN(c2nc3ncc(Cl)cc3c3nc(C4CC4)nn23)CC1` [Compound 38, 9-Chloro-2-cyclopropyl-5-(4-methylpiperazin-1-yl)pyrido[3,2-e][1,2,4]triazolo[1,5-c]pyrimidine], the “Metabolic stability (CLh. int), Mouse” value in data set [1] worked out at 14900 µL/min/mg. The “Metabolic stability (CLh. int), Human” value in data set [2] was 7180 µL/min/mg. Further, the concentration for half-maximal inhibition (IC50) in data set [3] is more than 100 µM.
Take `CNC1CN(c2nc3ncc(OC(F)F)cc3n3cnnc23)C1` [Compound 59, 1-(8-(Difluoromethoxy)pyrido[2,3-e][1,2,4]triazolo[4,3-a]pyrazin-4-yl)-N-methylazetidin-3-amine]: the “Metabolic stability (CLh. int), Mouse” value in data set [1] is 1230 µL/min/mg. In addition, the IC50 in data set [4] is 0.89 µM; in data set [3], more than 100 µM. The “Metabolic stability (CLh. int), Human” value in data set [2] stood at 1320 µL/min/mg.
Consider `CN1CCN(c2nc3ncc(C(F)(F)F)cc3n3cnnc23)CC1` [Compound 53, 4-(4-Methylpiperazin-1-yl)-8-(trifluoromethyl)pyrido[2,3-e][1,2,4]triazolo[4,3-a]pyrazine], for which the “Metabolic stability (CLh. int), Mouse” value in data set [1] stood at 3380 µL/min/mg. In data set [4], this molecule displayed a half-inhibitory concentration (IC50) of 0.28 µM. In addition, the “Metabolic stability (CLh. int), Human” value in data set [2] was determined as 2340 µL/min/mg.
As for `C#Cc1cnc2nc(N3CC(NC)C3)c3nncn3c2c1` [Compound 54, 1-(8-Ethynylpyrido[2,3-e][1,2,4]triazolo[4,3-a]pyrazin-4-yl)-N-methylazetidin-3-amine], in data set [1], the “Metabolic stability (CLh. int), Mouse” value turned out to be 680 µL/min/mg. The values for the IC50 in data set [4] and in data set [3] were 0.2 µM and more than 100 µM, respectively. Besides, the “Metabolic stability (CLh. int), Human” value in data set [2] worked out at 1160 µL/min/mg.
Take `Cn1cc2c(n1)c(N1CCNCC1)nc1ncc(Cl)cc12` [Compound 45, 8-Chloro-2-methyl-4-(piperazin-1-yl)-2H-pyrazolo[3,4-c][1,8]naphthylidine]: the “Metabolic stability (CLh. int), Mouse” value in data set [1] came out at 12990 µL/min/mg. The “Metabolic stability (CLh. int), Human” value in data set [2] is 3260 µL/min/mg. In data set [3], this molecule came in with an IC50 of more than 100 µM.
With `N#Cc1cnc2nc(N3CCNCC3)c3nncn3c2c1` [Compound 26, 4-(piperazin-1-yl)pyrido[2,3-e][1,2,4]triazolo[4,3-a]pyrazin-8-carbonitrile], the “Metabolic stability (CLh. int), Mouse” value in data set [1] turned out to be 6740 µL/min/mg. The IC50 in data set [4] was 0.22 µM; in data set [3], more than 100 µM. Further, the “Metabolic stability (CLh. int), Human” value in data set [2] is 2450 µL/min/mg.
In the same order, the values of `CN1CCN(c2nc3ncc(C#N)cc3n3cnnc23)CC1` [Compound 13, 4-(4-Methylpiperazin-1-yl)pyrido[2,3-e][1,2,4]triazolo[4,3-a]pyrazin-8-carbonitrile] are 3070 µL/min/mg, 0.238 µM, more than 100 µM and 2710 µL/min/mg.
Turning to `CNC1CN(c2nc3nc(Cl)c(Cl)cc3n3cnnc23)C1` [Compound 27, 1-(7,8-Dichloropyrido[2,3-e][1,2,4]triazolo[4,3-a]pyrazin-4-yl)-N-methylazetidin-3-amine], the “Metabolic stability (CLh. int), Mouse” value in data set [1] came out at 7270 µL/min/mg. In data set [2], the “Metabolic stability (CLh. int), Human” value turned out to be 1240 µL/min/mg. For the same molecule, the IC50 in data set [3] is more than 100 µM.
In the case of `CN1CCN(c2nc3nc(C#N)c(Cl)cc3n3cnnc23)CC1` [Compound 21, 8-Chloro-4-(4-methylpiperazin-1-yl)pyrido[2,3-e][1,2,4]triazolo[4,3-a]pyrazin-7-carbonitrile], the “Metabolic stability (CLh. int), Mouse” value in data set [1] was found to be 7130 µL/min/mg. The molecule also displayed an IC50 in data set [4] of 0.27 µM. Moreover, the “Metabolic stability (CLh. int), Human” value in data set [2] amounted to 4870 µL/min/mg.
